This passage reports Ki and Kd results from ChEMBL document CHEMBL1157603, “Structural insights into the design of small molecule inhibitors that selectively antagonize Mcl-1” (J Med Chem, 2010).

Molecules are shown by their SMILES. pKd, pKi: −log10 of the molar value. A value given as a limit tells only on which side of the number the result lay.

Assay [1] has as its target T1, Bcl-2-like protein 1 (Homo sapiens, UniProt Q07817). The assay is described as follows: Displacement of fluorescein-labeled Bak-BH3 peptide from human Bcl-XL by fluorescence polarization assay.
In assay [2] the target is T2, Induced myeloid leukemia cell differentiation protein Mcl-1 (Homo sapiens, UniProt Q07820). The assay is described as follows: Displacement of fluorescein-labeled Bak-BH3 peptide from human Mcl1 by fluorescence polarization assay.
T2 sequence (Q07820 whole entry): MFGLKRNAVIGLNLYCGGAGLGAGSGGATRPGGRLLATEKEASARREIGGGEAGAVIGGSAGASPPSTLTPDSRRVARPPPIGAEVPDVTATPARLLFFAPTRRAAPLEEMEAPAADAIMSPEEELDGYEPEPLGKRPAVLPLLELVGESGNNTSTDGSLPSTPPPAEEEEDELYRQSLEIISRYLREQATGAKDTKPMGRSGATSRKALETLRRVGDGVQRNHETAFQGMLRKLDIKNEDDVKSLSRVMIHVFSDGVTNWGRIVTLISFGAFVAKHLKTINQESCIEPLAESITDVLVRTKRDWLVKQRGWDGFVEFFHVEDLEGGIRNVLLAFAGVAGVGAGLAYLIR
Assay [3] concerns the target T1, Bcl-2-like protein 1. The assay is described as follows: Binding affinity to human Bcl-XL by isothermal titration calorimetry.
For assay [4], the target named is T2, Induced myeloid leukemia cell differentiation protein Mcl-1. The assay is described as follows: Binding affinity to human Mcl1 by isothermal titration calorimetry.

T1 sequence (Q07817 whole entry): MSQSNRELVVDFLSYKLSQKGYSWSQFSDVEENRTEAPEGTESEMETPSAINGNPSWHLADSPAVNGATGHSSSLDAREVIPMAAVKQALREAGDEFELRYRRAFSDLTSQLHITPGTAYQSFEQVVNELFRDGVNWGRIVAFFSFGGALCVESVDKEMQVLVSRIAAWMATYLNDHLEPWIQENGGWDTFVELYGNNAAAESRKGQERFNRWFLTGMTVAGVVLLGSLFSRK

As to `CC(C)C(C(=O)O)N1C(=O)/C(=C/c2ccc(Br)cc2)SC1=S` (configuration not stated), the pKi on Bcl-2-like protein 1 [1] is 5.00; in assay [2], 4.36. For the same compound, the pKd at Bcl-2-like protein 1 [3] was 5.06; in assay [4], 4.08.

Regarding `COc1ccc(-c2ccc(/C=C3\SC(=S)N([C@@H](Cc4ccccc4)C(=O)O)C3=O)cn2)cc1OC`, the negative logarithm of the Ki (pKi) is below 4.00 at Bcl-2-like protein 1 [1] and 5.10 in assay [2]. The negative logarithm of the Kd (pKd) at Bcl-2-like protein 1 [3] was below 3.12; in assay [4], 5.00.

As to `COc1cccc(-c2ccc(/C=C3\SC(=S)N([C@@H](Cc4ccccc4)C(=O)O)C3=O)cn2)c1OC`, the negative logarithm of the Ki (pKi) at Bcl-2-like protein 1 [1] was 5.43; in assay [2], 5.16. In addition, the negative-log Kd (pKd) on Bcl-2-like protein 1 [3] is 5.47; in assay [4], 6.60.
